From patent US20030185853A1, “Arteriosclerosis-preventing material, immune-activating material, vertebrate that has eaten such materials, and eggs thereof” (Nichimo Co., Ltd., priority 1999, published 2003)

Tests used:
[1] = tested on: Smooth muscle cells (SMC) derived from the aortic tunica media of stroke-prone spontaneously hypertensive rats (SHRSP); assay: Study 2 on arteriosclerosis capability: propagation of smooth muscle cells of the tunica media; type: cell-based; settings: 0.1 to 30 μmol/liter, five days; for smooth muscle cell propagating capability, number of cells (Determination A, FIG. 5): 10% FBS; for smooth muscle cell propagating capability, number of cells (Determination B, FIG. 6): with 20 ng/ml PDGF
Method: The object of the study is to investigate the effect of the above-described concentrated material of the present invention in terms of preventing propagation of smooth muscle cells of the tunica media of the blood vessels, which is one factor in arteriosclerosis.
1) Smooth muscle cells (SMC) derived from the aortic tunica media of stroke-prone spontaneously hypertensive rats (SHRSP) were prepared by the explant method, and five generations were cultivated.
2) After inoculating 10,000 well SMC in a 24-well plate, the cells were rinsed in the subconfluent state with DMEM medium containing 10% FBS at 37° C. and in the presence of 5% CO2. [The medium] was replaced with DMEM medium containing 0.4% albumin (phenol red-free) and cultivated for 48 hours.
3) Genistein (referred to hereafter as Gen), daidzein (referred to hereafter as Dai), glycitein (referred to hereafter as Gly), and the concentrated material of the present invention were each added to DMEM culture medium (phenol red-free) containing 10% FBS (charcoal-treated) to a concentration of 0.1 to 30 μmol/liter and cultivated for five days. Then, the number of cells was determined with a Coulter counter (referred to hereafter as Determination A).
4) The number of cells was determined by adding 20 ng/ml PDGF in accordance with the method 3) described above (referred to as Determination B).

chicks = assay: Study 1 on immune-activating capability: number of deaths during rearing of chicks; type: in vivo; settings: administered to comparison group after three weeks
Method: The object of the study is to investigate the immune-activating capability based on the number of deaths during rearing of chicks.
6,200 young chicks immediately after hatching were grouped into a comparison group and a study group each. The comparison group was provided conventional feed to which Bacillus subtilus (0.1 wt %) was added, and the study group was provided conventional feed to which the product (0.1 wt %) of propagation of lactic acid bacteria (Enterococcus faesium) as useful microorganisms in pulse crops of the present invention was added, and the number of deaths of chicks at one week, two weeks, three weeks, and four weeks of age was compared.

SMILES	smooth muscle cell propagating capability, number of cells (Determination A, FIG. 5) [1]	smooth muscle cell propagating capability, number of cells (Determination B, FIG. 6) [1]	increase in deaths of chicks after antibiotic administration (chicks)
O=c1c(-c2ccc(O)cc2)coc2cc(O)ccc12 [Dai, daidzein]	cell-reducing effect	cell-reducing effect	–
O=c1c(-c2ccc(O)cc2)coc2cc(O)cc(O)c12 [Gen, Genistein]	cell-reducing effect	cell-reducing effect	–
CC1(C)S[C@@H]2[C@H](NC(=O)[C@H](N)c3ccccc3)C(=O)N2[C@H]1C(=O)O [ampicillin]	–	–	an increase in deaths could not be prevented
